{"source": "patent US20170050957A1", "about": "“4-AMINO-6-(HETEROCYCLIC)PICOLINATES AND 6-AMINO-2-(HETEROCYCLIC)PYRIMIDINE-4-CARBOXYLATES AND THEIR USE AS HERBICIDES” (Dow AgroSciences LLC, priority 2013, published 2017)", "key": {"[1]": {"tested_on": "Key Grass and Sedge Weeds as well as Grass Crops", "assay": "Post-emergent Test II herbicidal activity (Table 16)", "assay_type": "in vivo", "conditions": "post-emergence, 336 h, 14 d; for pest or weed control at 35 g/ha: 35 g ai/ha; for pest or weed control at 70 g/ha: 70 g ai/ha; for pest or weed control at 140 g/ha: 140 g ai/ha", "procedure,_shortened": "(§1)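 Plants grown in greenhouse (~15 h photoperiod, 23-29 °C day, 22-28 °C night) to first or second true leaf stage, then sprayed post-emergence at 187 L/ha with a high rate and 1/2×, 1/4×, 1/8× and 1/16× dilutions. Injury scored visually after 14 d, 0-100% versus untreated plants.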"}, "[2]": {"tested_on": "Key Broadleaf Weed and Crop Species", "assay": "Post-emergent Test II herbicidal activity (Table 15)", "assay_type": "in vivo", "conditions": "post-emergence, 336 h, 14 d; for pest or weed control at 35 g/ha: 35 g ai/ha; for pest or weed control at 70 g/ha: 70 g ai/ha; for pest or weed control at 140 g/ha: 140 g ai/ha", "procedure,_shortened": "as §1"}, "[3]": {"conditions": "Cyperus esculentus, yellow nutsedge (Cyperus esculentus), read-out: Visual Growth Reduction (%) 14 Days After Application, CYPES"}, "[4]": {"conditions": "Echinochloa crus-galli, barnyardgrass (Echinochloa crus-galli), read-out: Visual Growth Reduction (%) 14 Days After Application, ECHCG"}, "[5]": {"conditions": "Oryza sativa, rice (Oryza sativa), read-out: Visual Growth Reduction (%) 14 Days After Application, ORYSA"}, "[6]": {"conditions": "Setaria faberi, giant foxtail (Setaria faberi), read-out: Visual Growth Reduction (%) 14 Days After Application, SETFA"}, "[7]": {"conditions": "Triticum aestivum, wheat, spring (Triticum aestivum), read-out: Visual Growth Reduction (%) 14 Days After Application, TRZAS"}, "[8]": {"conditions": "Zea mays, maize, corn (Zea mays), read-out: Visual Growth Reduction (%) 14 Days After Application, ZEAMX"}, "[9]": {"conditions": "Abutilon theophrasti, velvetleaf (Abutilon theophrasti), read-out: Visual Growth Reduction (%) 14 Days After Application, ABUTH"}, "[10]": {"conditions": "Amaranthus retroflexus, redroot pigweed (Amaranthus retroflexus), read-out: Visual Growth Reduction (%) 14 Days After Application, AMARE"}, "[11]": {"conditions": "Brassica napus, oilseed rape, canola (Brassica napus), read-out: Visual Growth Reduction (%) 14 Days After Application, BRSNN"}, "[12]": {"conditions": "Chenopodium album, lambsquarters (Chenopodium album), read-out: Visual Growth Reduction (%) 14 Days After Application, CHEAL"}, "[13]": {"conditions": "Euphorbia heterophylla, wild poinsettia (Euphorbia heterophylla), read-out: Visual Growth Reduction (%) 14 Days After Application, EPHHL"}, "[14]": {"conditions": "Helianthus annuus, sunflower (Helianthus annuus), read-out: Visual Growth Reduction (%) 14 Days After Application, HELAN"}}, "note": "Where two headings read alike, the source gives them in different places."}
{"smiles": "COC(=O)c1nc(-c2ccc3cc[nH]c3c2)c(C)c(N)c1Cl", "note": "[Compound 1.28]", "values": [{"measurement": "pest or weed control at 35 g/ha", "setting": "[1]; [3]", "value": "0 to 29", "unit": "%"}, {"measurement": "pest or weed control at 70 g/ha", "setting": "[1]; [3]", "value": "0 to 29", "unit": "%"}, {"measurement": "pest or weed control at 140 g/ha", "setting": "[1]; [3]", "value": "0 to 29", "unit": "%"}, {"measurement": "pest or weed control at 35 g/ha", "setting": "[1]; [4]", "value": "0 to 29", "unit": "%"}, {"measurement": "pest or weed control at 70 g/ha", "setting": "[1]; [4]", "value": "0 to 29", "unit": "%"}, {"measurement": "pest or weed control at 140 g/ha", "setting": "[1]; [4]", "value": "0 to 29", "unit": "%"}, {"measurement": "pest or weed control at 35 g/ha", "setting": "[1]; [5]", "value": "0 to 29", "unit": "%"}, {"measurement": "pest or weed control at 70 g/ha", "setting": "[1]; [5]", "value": "0 to 29", "unit": "%"}, {"measurement": "pest or weed control at 140 g/ha", "setting": "[1]; [5]", "value": "0 to 29", "unit": "%"}, {"measurement": "pest or weed control at 35 g/ha", "setting": "[1]; [6]", "value": "0 to 29", "unit": "%"}, {"measurement": "pest or weed control at 70 g/ha", "setting": "[1]; [6]", "value": "0 to 29", "unit": "%"}, {"measurement": "pest or weed control at 140 g/ha", "setting": "[1]; [6]", "value": "0 to 29", "unit": "%"}, {"measurement": "pest or weed control at 35 g/ha", "setting": "[1]; [7]", "value": "0 to 29", "unit": "%"}, {"measurement": "pest or weed control at 70 g/ha", "setting": "[1]; [7]", "value": "30 to 44", "unit": "%"}, {"measurement": "pest or weed control at 140 g/ha", "setting": "[1]; [7]", "value": "30 to 44", "unit": "%"}, {"measurement": "pest or weed control at 35 g/ha", "setting": "[1]; [8]", "value": "0 to 29", "unit": "%"}, {"measurement": "pest or weed control at 70 g/ha", "setting": "[1]; [8]", "value": "0 to 29", "unit": "%"}, {"measurement": "pest or weed control at 140 g/ha", "setting": "[1]; [8]", "value": "0 to 29", "unit": "%"}, {"measurement": "pest or weed control at 35 g/ha", "setting": "[2]; [9]", "value": "85 to 94", "unit": "%"}, {"measurement": "pest or weed control at 70 g/ha", "setting": "[2]; [9]", "value": "85 to 94", "unit": "%"}, {"measurement": "pest or weed control at 140 g/ha", "setting": "[2]; [9]", "value": "95 to 100", "unit": "%"}, {"measurement": "pest or weed control at 35 g/ha", "setting": "[2]; [10]", "value": "0 to 29", "unit": "%"}, {"measurement": "pest or weed control at 70 g/ha", "setting": "[2]; [10]", "value": "0 to 29", "unit": "%"}, {"measurement": "pest or weed control at 140 g/ha", "setting": "[2]; [10]", "value": "60 to 74", "unit": "%"}, {"measurement": "pest or weed control at 35 g/ha", "setting": "[2]; [11]", "value": "75 to 84", "unit": "%"}, {"measurement": "pest or weed control at 70 g/ha", "setting": "[2]; [11]", "value": "85 to 94", "unit": "%"}, {"measurement": "pest or weed control at 140 g/ha", "setting": "[2]; [11]", "value": "85 to 94", "unit": "%"}, {"measurement": "pest or weed control at 35 g/ha", "setting": "[2]; [12]", "value": "45 to 59", "unit": "%"}, {"measurement": "pest or weed control at 70 g/ha", "setting": "[2]; [12]", "value": "60 to 74", "unit": "%"}, {"measurement": "pest or weed control at 140 g/ha", "setting": "[2]; [12]", "value": "60 to 74", "unit": "%"}, {"measurement": "pest or weed control at 35 g/ha", "setting": "[2]; [13]", "value": "0 to 29", "unit": "%"}, {"measurement": "pest or weed control at 70 g/ha", "setting": "[2]; [13]", "value": "0 to 29", "unit": "%"}, {"measurement": "pest or weed control at 140 g/ha", "setting": "[2]; [13]", "value": "0 to 29", "unit": "%"}, {"measurement": "pest or weed control at 35 g/ha", "setting": "[2]; [14]", "value": "95 to 100", "unit": "%"}, {"measurement": "pest or weed control at 70 g/ha", "setting": "[2]; [14]", "value": "95 to 100", "unit": "%"}, {"measurement": "pest or weed control at 140 g/ha", "setting": "[2]; [14]", "value": "95 to 100", "unit": "%"}, {"measurement": "melting point", "value": "231 to 234", "unit": "°C"}]}
{"smiles": "Cc1c(-c2ccc3cc[nH]c3c2)nc(C(=O)O)c(Cl)c1N", "note": "[Compound 1.29]", "values": [{"measurement": "pest or weed control at 35 g/ha", "setting": "[1]; [3]", "value": "0 to 29", "unit": "%"}, {"measurement": "pest or weed control at 70 g/ha", "setting": "[1]; [3]", "value": "0 to 29", "unit": "%"}, {"measurement": "pest or weed control at 140 g/ha", "setting": "[1]; [3]", "value": "30 to 44", "unit": "%"}, {"measurement": "pest or weed control at 35 g/ha", "setting": "[1]; [4]", "value": "0 to 29", "unit": "%"}, {"measurement": "pest or weed control at 70 g/ha", "setting": "[1]; [4]", "value": "0 to 29", "unit": "%"}, {"measurement": "pest or weed control at 140 g/ha", "setting": "[1]; [4]", "value": "0 to 29", "unit": "%"}, {"measurement": "pest or weed control at 35 g/ha", "setting": "[1]; [5]", "value": "0 to 29", "unit": "%"}, {"measurement": "pest or weed control at 70 g/ha", "setting": "[1]; [5]", "value": "0 to 29", "unit": "%"}, {"measurement": "pest or weed control at 140 g/ha", "setting": "[1]; [5]", "value": "0 to 29", "unit": "%"}, {"measurement": "pest or weed control at 35 g/ha", "setting": "[1]; [6]", "value": "0 to 29", "unit": "%"}, {"measurement": "pest or weed control at 70 g/ha", "setting": "[1]; [6]", "value": "0 to 29", "unit": "%"}, {"measurement": "pest or weed control at 140 g/ha", "setting": "[1]; [6]", "value": "0 to 29", "unit": "%"}, {"measurement": "pest or weed control at 35 g/ha", "setting": "[1]; [7]", "value": "0 to 29", "unit": "%"}, {"measurement": "pest or weed control at 70 g/ha", "setting": "[1]; [7]", "value": "0 to 29", "unit": "%"}, {"measurement": "pest or weed control at 140 g/ha", "setting": "[1]; [7]", "value": "0 to 29", "unit": "%"}, {"measurement": "pest or weed control at 35 g/ha", "setting": "[1]; [8]", "value": "0 to 29", "unit": "%"}, {"measurement": "pest or weed control at 70 g/ha", "setting": "[1]; [8]", "value": "0 to 29", "unit": "%"}, {"measurement": "pest or weed control at 140 g/ha", "setting": "[1]; [8]", "value": "0 to 29", "unit": "%"}, {"measurement": "pest or weed control at 35 g/ha", "setting": "[2]; [9]", "value": "0 to 29", "unit": "%"}, {"measurement": "pest or weed control at 70 g/ha", "setting": "[2]; [9]", "value": "0 to 29", "unit": "%"}, {"measurement": "pest or weed control at 140 g/ha", "setting": "[2]; [9]", "value": "0 to 29", "unit": "%"}, {"measurement": "pest or weed control at 35 g/ha", "setting": "[2]; [10]", "value": "45 to 59", "unit": "%"}, {"measurement": "pest or weed control at 70 g/ha", "setting": "[2]; [10]", "value": "0 to 29", "unit": "%"}, {"measurement": "pest or weed control at 140 g/ha", "setting": "[2]; [10]", "value": "0 to 29", "unit": "%"}, {"measurement": "pest or weed control at 35 g/ha", "setting": "[2]; [11]", "value": "75 to 84", "unit": "%"}, {"measurement": "pest or weed control at 70 g/ha", "setting": "[2]; [11]", "value": "75 to 84", "unit": "%"}, {"measurement": "pest or weed control at 140 g/ha", "setting": "[2]; [11]", "value": "85 to 94", "unit": "%"}, {"measurement": "pest or weed control at 35 g/ha", "setting": "[2]; [12]", "value": "45 to 59", "unit": "%"}, {"measurement": "pest or weed control at 70 g/ha", "setting": "[2]; [12]", "value": "45 to 59", "unit": "%"}, {"measurement": "pest or weed control at 140 g/ha", "setting": "[2]; [12]", "value": "75 to 84", "unit": "%"}, {"measurement": "pest or weed control at 35 g/ha", "setting": "[2]; [13]", "value": "0 to 29", "unit": "%"}, {"measurement": "pest or weed control at 70 g/ha", "setting": "[2]; [13]", "value": "0 to 29", "unit": "%"}, {"measurement": "pest or weed control at 140 g/ha", "setting": "[2]; [13]", "value": "0 to 29", "unit": "%"}, {"measurement": "pest or weed control at 35 g/ha", "setting": "[2]; [14]", "value": "60 to 74", "unit": "%"}, {"measurement": "pest or weed control at 70 g/ha", "setting": "[2]; [14]", "value": "60 to 74", "unit": "%"}, {"measurement": "pest or weed control at 140 g/ha", "setting": "[2]; [14]", "value": "75 to 84", "unit": "%"}, {"measurement": "melting point", "value": "168 to 175", "unit": "°C"}]}
